Structures can show the parent of a compound that is named as a salt.

Results on one compound are retold here after patent publication EP2607478A1, “Phenanthroline treated MSC” (Universiteit Twente, priority 2011, dated 2013).

This assay relates to MSCs. The assay can be described thus: Gene expression analysis by real-time qPCR in treated MSCs. It is filed as cell-based, Human. Conditions: primary MSCs, 1 nM, 10 nM and 1 uM, 2 days, qPCR (Figure 7). Here is the method:
MSCs were seeded in triplicate in 6-well plates at 5000 cells/cm^2 and allowed to attach for 10-15 hours in proliferation medium. Upon reaching near confluency, cells were treated as described above. After 2 days of treatment and 2 subsequent days of incubation with fresh medium, cells were lysed immediately with TRIzol. RNA was isolated using a Bioke RNA II nucleospin RNA isolation kit (Machery Nagel) and RNA concentrations were measured using an ND100 spectrophotometer (Nanodrop technologies, USA). cDNA was synthesized from 100 ng of RNA, using iScript (BioRad) according to the manufacturer's protocol. For qualitative PCR, a master mix, containing distilled water, forward primer, reverse primer (Sigma Genosys), BSA, and SYBR green I mix (all from Invitrogen) was prepared. Real-time qPCR was performed in a Light-Cycler (Roche). Light-Cycler data was analyzed using the fit points method of Light-Cycler software. The baseline was set at the lower log-linear part above baseline noise and the crossing […] (Ct value) was determined. Ct values were normalized to the 18S housekeeping gene and delta Ct (Ct, control ― Ct, sample) was used to calculate the upregulation in gene expression (53).
For orientation: Quantitative PCR measures a nucleic acid by following its amplification.

In the case of `CCN(CC)CCCC(C)Nc1c2ccc(Cl)cc2nc2ccc(OC)cc12` (stereo not shown) [Quinacrine hydrochloride], the VEGF gene expression entry is recorded as “does not affect VEGF gene expression”.
